Measured values published in publication PMC2680390 (Journal of medicinal chemistry, 2008).
Each block holds one molecule with its values, some of them ahead of it.

Columns and labels:
[1] = biological target: T1, ERα/SRC-3 coactivator interaction (Homo sapiens, UniProt P03372, C381S/C530S); assay: TR-FRET CBI assay, ERα-LBD / SRC-3-NRD; type: binding; conditions: 1 μM estradiol, fluorescein-SRC-3-NRD 50 nM; for Ki: TR-FRET Ki ERα
T1 sequence (P03372 311-547 C381S/C530S limits assumed): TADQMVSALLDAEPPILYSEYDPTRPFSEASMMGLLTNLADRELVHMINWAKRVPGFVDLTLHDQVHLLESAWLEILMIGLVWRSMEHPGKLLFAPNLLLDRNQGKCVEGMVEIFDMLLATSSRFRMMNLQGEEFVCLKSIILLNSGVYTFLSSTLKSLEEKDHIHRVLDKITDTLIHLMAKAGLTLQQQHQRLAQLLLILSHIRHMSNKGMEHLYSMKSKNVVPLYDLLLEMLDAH

[2] = test system: HEC-1 cells; assay: CellTiter 96 AQueous One Solution Cell Proliferation Assay; type: cell-based; conditions: doses up to 20 μM
[3] = biological target: ERα coactivator binding; conditions: read-out: Ki by fluorescence polarization assay; FP assay; cited from earlier work
[4] = biological target: ERβ (Homo sapiens, UniProt Q92731); assay: Preliminary cell-based reporter gene systems, ERβ; conditions: preliminary studies
ERβ, sequence (Q92731 whole entry, the tested form may be a part): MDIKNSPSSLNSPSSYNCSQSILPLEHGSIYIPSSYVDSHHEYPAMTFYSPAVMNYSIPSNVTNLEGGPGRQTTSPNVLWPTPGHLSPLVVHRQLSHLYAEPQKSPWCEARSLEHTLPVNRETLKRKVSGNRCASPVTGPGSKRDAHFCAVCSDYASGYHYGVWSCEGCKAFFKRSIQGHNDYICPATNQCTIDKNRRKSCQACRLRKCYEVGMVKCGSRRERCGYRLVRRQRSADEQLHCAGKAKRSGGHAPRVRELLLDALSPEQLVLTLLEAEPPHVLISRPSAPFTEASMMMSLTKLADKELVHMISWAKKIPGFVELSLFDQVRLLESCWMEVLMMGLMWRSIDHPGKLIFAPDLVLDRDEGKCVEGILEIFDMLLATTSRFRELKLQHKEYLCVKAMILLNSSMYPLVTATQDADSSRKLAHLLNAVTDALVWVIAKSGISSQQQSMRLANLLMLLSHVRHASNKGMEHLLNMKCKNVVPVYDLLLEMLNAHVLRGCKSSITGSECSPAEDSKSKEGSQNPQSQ

[5] = biological target: ERβ/SRC-3 coactivator interaction (Homo sapiens, UniProt Q92731); assay: TR-FRET CBI assay, ERβ-LBD / SRC-3-NRD; type: binding; conditions: for TR-FRET Ki ERβ: estradiol present, fluorescein-SRC-3-NRD
[6] = biological target: T2, ERβ ligand-binding domain (site-specifically labeled terbium/streptavidin-biotin/ER-LBD construct) (site-specifically labeled with biotin; bound to streptavidin-terbium in the assay); assay: FRET or BRET
T2 chain: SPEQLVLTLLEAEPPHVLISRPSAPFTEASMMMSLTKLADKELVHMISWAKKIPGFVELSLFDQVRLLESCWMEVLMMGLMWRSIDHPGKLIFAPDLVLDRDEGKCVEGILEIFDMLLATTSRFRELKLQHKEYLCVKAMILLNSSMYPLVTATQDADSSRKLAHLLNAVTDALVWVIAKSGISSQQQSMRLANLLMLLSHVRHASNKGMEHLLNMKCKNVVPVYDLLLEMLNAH

TR-FRET Ki ERα [1]: no binding is observed
Molecule: CC(C)CCc1cc(N(C)CC(C)C)nc(NCC(C)C)n1 [Compound 34a]

Molecule: CC(C)CCc1cc(NCC(C)C)nc(OCC(C)C)n1 [Compound 37a, [2-Isobutoxy-6-(3-methyl-butyl)-pyrimidin-4-yl]-isobutylamine]
TR-FRET Ki ERα [1]: None of these O- or S-containing pyrimidines showed any inhibition
Viable cell counts [2]: decreased significantly only at the highest doses of compound (20 μM)

TR-FRET Ki ERα [1]: inactive
Molecule: CC(C)CNc1cc(CCc2ccccc2)nc(N(C)CC(C)C)n1 [Compound 32, N^2-methyl-N^2,N^4-diisobutyl-(6-phenethyl-pyrimidin-2,4-yl)-diamine]

Mechanism-based inhibition of ERβ in cell-based reporter gene systems [4]: no mechanism-based inhibition of ERβ
Molecule: CC(C)CCc1cc(NCC(C)C)nc(NCC(C)C)n1 [Compound 13b, 2,4-diisobutylamino-6-isoamylpyrimidine]
Ki [3]: 29 µM

TR-FRET Ki ERα [1]: complete loss of activity
Ki [1]: > 1000 µM
Ki [5]: > 1000 µM
Molecule: CC(C)CNc1ccnc(NCC(C)C)n1 [Compound 27d, 2,4-diisobutylamino-pyrimidine]

Ki [1]: 7.3 µM
Mechanism-based inhibition of ERβ in cell-based reporter gene systems [4]: no mechanism-based inhibition of ERβ
Molecule: CC(C)CNc1cc(NCc2ccccc2)nc(NCC(C)C)n1 [Compound 27a]

Molecule: CC(C)CCc1cc(NCC(C)C)nc(S(=O)(=O)CC(C)C)n1 [Compound 39, Isobutyl-[6-(3-methyl-butyl)-2-(2-methyl-propane-1-sulfonyl)-pyrimidin-4-yl]-amine]
TR-FRET Ki ERα [1]: None of these O- or S-containing pyrimidines showed any inhibition

TR-FRET Ki ERα [1]: no activity for ERα
TR-FRET Ki ERβ [5]: very modest affinity for ERβ
Molecule: CC(C)CNc1nc(/C=C/c2ccccc2)cc(N(Cc2ccccc2)C(=O)OC(C)(C)C)n1 [Compound 8b]

Molecule: CC(C)CNc1cc(NCC(C)C)nc(NCC(C)C)n1 [Compound 25a, N,N',N''-Triisobutyl-pyrimidine-2,4,6-triamine]
TR-FRET Ki ERβ [5]: very modest affinity for ERβ
Viable cell counts [2]: decreased significantly only at the highest doses of compound (20 μM)

Molecule: CC(C)CNc1cc(CCc2ccccc2)nc(NCC(C)C)n1 [Compound 3a]
Mechanism-based inhibition of ERβ in cell-based reporter gene systems [4]: no mechanism-based inhibition of ERβ
Viable cell counts [2]: decreased significantly only at the highest doses of compound (20 μM)

TR-FRET Ki ERα [1]: activity is nearly fully restored
Molecule: CC(C)CCc1cc(NCC(C)C)nc(N(C)CC(C)C)n1 [Compound 31a]

TR-FRET Ki ERα [1]: lack of activity
Molecule: CC(C)CNc1cc(S(=O)(=O)CC(C)C)nc(NCC(C)C)n1 [Compound 28]

Ki [5]: 242 µM
TR-FRET Ki ERβ [5]: very modest affinity for ERβ
Molecule: CC(C)CNc1cc(/C=C/c2ccccc2)nc(NCC(C)C)n1 [Compound 2a, N,N'-diisobutyl-(6-styryl-pyrimidin-2,4-yl)-diamine]

Ki [1]: 120 µM
Molecule: CC(C)CSc1cc(SCC(C)C)nc(SCC(C)C)n1 [Compound 25e, 2,4,6-Tris-isobutylsulfanyl-pyrimidine]

TR-FRET Ki ERα [1]: lack of activity
Molecule: CC(C)CNc1cc(OCC(C)C)nc(NCC(C)C)n1 [Compound 27b]

Molecule: CC(C)CNc1cc(/C=C/c2ccccc2)nc(NCc2ccccc2)n1 [Compound 10a, N^2-Benzyl-N^4-isobutyl-6-styryl-pyrimidine-2,4-diamine]
Viable cell counts [2]: decreased significantly only at the highest doses of compound (20 μM)

Molecule: CC(C)CCc1cc(NCC(C)C)nc(NCc2ccccc2)n1 [Compound 18b]
Viable cell counts [2]: decreased significantly only at the highest doses of compound (20 μM)

TR-FRET Ki ERα [1]: complete loss of activity
Ki [1]: > 1000 µM
Ki [5]: > 1000 µM
Molecule: CC(C)CNc1cc(Cl)nc(NCC(C)C)n1 [Compound 26, 2,4-diisobutylamino-6-chloropyrimidine]

TR-FRET Ki ERα [1]: inactive
Molecule: CC(C)CNc1cc(CCc2cccc3ccccc23)nc(N(C)CC(C)C)n1 [Compound 31c]

Ki [6]: 0.066 µM
Molecule: LTERHKILHRLLQEGSPSD [unlabeled peptide containing the NR Box II (LXXLL motif) of SRC-1]
